According to US10308615B2, “Heterocyclic compounds as inhibitors of Vanin-1 enzyme” (Pfizer Inc., priority 2015, dated 2019):

The compounds below were run against T1, human vanin-1 (Homo sapiens (Human), UniProt O95497) (assay: Human Vanin-1 Enzyme Assay 1). Details: 25 pM human vanin-1, 50 uM pantetheine 7-amino-4-trifluoromethylcoumarin, 30 min preincubation, 60 min.
Type: biochemical
Description: Human Vanin-1 Enzyme Assay 1.
(§1) The in vitro assay measures enzymatic cleavage of the fluorescently-labeled vanin substrate, pantetheine 7-amino-4-trifluoromethylcoumarin, by human vanin-1.
(§2) The vanin-1 protein was prepared in-house from a construct expressing the extracellular domain of human vanin-1 (GenBank ID NM_004666) preceded N-terminally by the honey bee melittin signal peptide, a GSG linker sequence, a His6X tag and a FLAG tag. The secreted, soluble enzyme was purified from the conditioned medium from a CHO cell line stably expressing the resulting protein. Enzyme purification was performed through sequential Ni NTA and size-exclusion chromatography steps.
The test inhibitors were solubilized in DMSO to a stock concentration of 30 mM. On the day of the assay, dose response plates were prepared by diluting the inhibitors in DMSO at compound concentration 200-fold the final in-assay concentration. Intermediate concentrations were prepared by diluting in DMSO in a four-fold series for a total of 11 data points.
To prepare a working solution of human vanin-1, the enzyme was diluted to 33.3 pM in the assay buffer consisting of 50 mM Tris-HCl pH=8.0, 50 mM KCl, 0.005% Brij-35 and […] cysteamine. To begin the assay 100 nL was transferred from the compound plate to the assay plate. Next, 15 μL of the vanin-1 working solution were transferred to the assay plate. The inhibitor and enzyme were incubated at room temperature for 30 minutes. The enzyme reaction was then initiated by the addition of 5 μL of 200 μM pantetheine 7-amino-4-trifluoromethylcoumarin prepared in assay buffer. The final concentrations in the assay were 25 pM human vanin-1 and 50 uM substrate. The final concentration of DMSO was 0.5%. The assay plates were incubated for 60 minutes and before they were read on a Perkin Elmer EnVision Model 2103 using a 405 nm excitation wavelength and a 510 nm emission wavelength for detection.

T1 sequence (O95497 22-491): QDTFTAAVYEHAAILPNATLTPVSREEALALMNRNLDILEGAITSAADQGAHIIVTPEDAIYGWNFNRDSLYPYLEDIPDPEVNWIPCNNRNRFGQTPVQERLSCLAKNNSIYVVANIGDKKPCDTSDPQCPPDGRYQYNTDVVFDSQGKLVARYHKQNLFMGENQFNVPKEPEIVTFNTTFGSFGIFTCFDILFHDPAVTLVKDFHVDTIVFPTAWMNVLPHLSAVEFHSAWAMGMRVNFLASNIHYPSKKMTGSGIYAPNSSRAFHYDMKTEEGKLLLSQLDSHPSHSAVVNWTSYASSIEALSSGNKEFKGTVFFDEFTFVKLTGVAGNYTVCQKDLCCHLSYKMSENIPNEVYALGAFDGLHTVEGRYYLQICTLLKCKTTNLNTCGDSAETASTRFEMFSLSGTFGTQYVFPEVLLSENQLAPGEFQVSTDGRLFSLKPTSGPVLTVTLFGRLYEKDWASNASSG

Compound	IC50 [nM]
N#Cc1cc(Cl)cc(C(=O)c2cnc(NC3(c4cncnc4)CC3)nc2)c1 [Example 146, 3-chloro-5-[(2-{[1-(pyrimidin-5-yl)cyclopropyl]amino}pyrimidin-5-yl)carbonyl] benzonitrile]	26
NC(=O)c1cccc(C(=O)c2cnc(NC3(c4cncnc4)CC3)nc2)c1 [Example 149, 3-[(2-{[1-(pyrimidin-5-yl)cyclopropyl]amino}pyrimidin-5-yl)carbonyl] benzamide]	25.6
N#Cc1cccc(C(=O)c2cnc(NC3(c4cnc(N)cn4)CC3)nc2)c1 [Example 151, 3-[(2-{[1-(5-aminopyrazin-2-yl)cyclopropyl]amino}pyrimidin-5-yl)carbonyl] benzonitrile]	27.8
COc1ccc(C(=O)c2cnc(NC3(c4cncnc4)CC3)nc2)cc1C#N [Example 161, 2-methoxy-5-[(2-{[1-(pyrimidin-5-yl)cyclopropyl]amino}pyrimidin-5-yl)carbonyl] benzonitrile]	1850
N#Cc1cccc(C(=O)c2cnc(NCC3CCC(O)CC3)nc2)c1 (stereo not shown) [Example 162, 3-[(2-{[(4-hydroxycyclohexyl)methyl]amino}pyrimidin-5-yl)carbonyl] benzonitrile]	72.6
O=C(O)Cc1cccc(C(=O)c2cnc(NC3(c4cncnc4)CC3)nc2)c1 [Example 150, {3-[(2-{[1-(pyrimidin-5-yl)cyclopropyl]amino}pyrimidin-5-yl)carbonyl]phenyl}acetic acid]	23.9
N#Cc1cccc(C(=O)c2cnc(NC3(c4ccc(C(N)=O)nc4)CC3)nc2)c1 [Example 152, 5-(1-{[5-(3-cyanobenzoyl)pyrimidin-2-yl]amino}cyclo-propyl)pyridine-2-carboxamide]	77.7
O=C(O)c1cccc(C(=O)c2cnc(NC3(c4cncnc4)CC3)nc2)c1 [Example 148, 3-[(2-{[1-(pyrimidin-5-yl)cyclopropyl]amino}pyrimidin-5-yl)carbonyl] benzoic acid]	260
NC(=O)c1cccc(C(=O)c2cnc(NC3(c4cnccn4)CC3)nc2)c1 [Example 147, 3-[(2-{[1-(pyrazin-2-yl)cyclopropyl]amino}pyrimidin-5-yl)carbonyl] benzamide]	55.7
N#Cc1cccc(C(=O)c2cnc(NC3(c4ccc(O)nc4)CC3)nc2)c1 [Example 153, 3-[(2-{[1-(6-hydroxypyridin-3-yl)cyclopropyl]amino}pyrimidin-5-yl)carbonyl] benzonitrile]	307

Each compound was assayed against T1, human vanin-1 (assay: Human Vanin-1 Enzyme Assay 3). Details: 2 nM human vanin-1, 10 uM substrate, 15 min.
Type: biochemical
Description: Human Vanin-1 Enzyme Assay 3.
as §1, §2
On the day of the assay, dose response plates were prepared by diluting the inhibitors in DMSO at compound concentration 100-fold the final in-assay concentration. Concentration series were prepared by serially diluting in DMSO in a two-fold series for a total of 11 data points. Intermediate compound plates containing compound in 10% DMSO were then created by diluting the compounds 10-fold in assay buffer consisting of 50 mM Tris-HCl pH=8.0, 50 mM KCl, 0.005% Brij-35 and 1.5 mM cysteamine. To begin the assay 3 μL were transferred from the intermediate compound plate to the assay plate.
A working solution of human vanin-1 was prepared by diluting the enzyme stock to 2.5 nM in assay buffer. Next, 24 μL of the vanin-1 working solution were transferred to the assay plate. The enzyme reaction was then initiated by the addition of 3 μL of 100 μM pantetheine 7-amino-4-trifluoromethylcoumarin prepared in 5 uM acetic acid. The final concentrations in the assay were 2 nM human vanin-1 and 10 uM substrate. The final concentration of DMSO was 1%. The assay plates were incubated at room temperature for 15 minutes and before they were read on a Tecan Safire using a 405 nm excitation wavelength and a 505 nm emission wavelength for detection.

Compound	IC50 [nM]
N#Cc1cccc(C(=O)c2cnc(NC3(c4cccnc4)CC3)nc2)c1 [Example 2, 3-[(2-{[1-(pyridin-3-yl)cyclopropyl]amino}pyrimidin-5-yl)carbonyl]benzonitrile]	2.1
O=C(c1cnc(NC2(c3cccnc3)CC2)nc1)c1cccc(C(F)(F)F)c1 [Example 71, (2-{[1-(pyridin-3-yl)cyclopropyl]amino}pyrimidin-5-yl)[3-(trifluoromethyl)phenyl]methanone]	23.8
COc1ccc(C(=O)c2cnc(NCc3ccccc3)nc2)cc1 [Example 74, [2-(benzylamino)pyrimidin-5-yl](4-methoxyphenyl) methanone]	736
COc1ccc(COc2ncc(C(=O)c3cccc(C(F)(F)F)c3)cn2)cc1 [Example 157, {2-[(4-methoxybenzyl)oxy]pyrimidin-5-yl}[3-(trifluoromethyl)phenyl]methanone]	> 2340
COc1ccc(CNc2ncc(C(=O)c3ccc(C(F)(F)F)cc3)cn2)cc1 [Example 55, {2-[(4-methoxybenzyl)amino]pyrimidin-5-yl}[4-(trifluoromethyl)phenyl]methanone]	< 16.5
N#Cc1ccc(CNc2ncc(C(=O)c3ccc(C(F)(F)F)cc3)cn2)cc1 [Example 50, 4-[({5-[4-(trifluoromethyl)benzoyl]pyrimidin-2-yl}amino)methyl] benzonitrile]	204
O=C(c1cnc(NCc2ccc(Cl)cc2F)nc1)c1cccc(C(F)(F)F)c1 [Example 61, {2-[(4-chloro-2-fluorobenzyl)amino]pyrimidin-5-yl}[3-(trifluoromethyl)phenyl]methanone]	24.9
O=C(c1cnc(NCc2ccc(F)cc2)nc1)c1cccc(Cl)c1 [Example 36, (3-chlorophenyl){2-[(4-fluorobenzyl)amino]pyrimidin-5-yl}methanone]	31
O=C(c1cnc(NCc2ccnnc2)nc1)c1cccc(C(F)(F)F)c1 [Example 122, {2-[(pyridazin-4-ylmethyl)amino]pyrimidin-5-yl}[3-(trifluoromethyl)phenyl]methanone]	601
O=C(c1ccc(C(F)(F)F)cc1)c1cnc(NCc2ccc(F)cc2)nc1 [Example 54, {2-[(4-fluorobenzyl)amino]pyrimidin-5-yl}[4-(trifluoromethyl)phenyl]methanone]	35.4
COc1ccc(CNc2ncc(C(=O)c3ccc(OC)cc3)cn2)cc1 [Example 53, {2-[(4-methoxybenzyl)amino]pyrimidin-5-yl}(4-methoxyphenyl) methanone]	637
COc1ccc(C(=O)c2cnc(NCc3cccc(C#N)c3)nc2)cc1 [Example 77, 3-({[5-(4-methoxybenzoyl)pyrimidin-2-yl]amino}methyl) benzonitrile]	998
O=C(c1ccc(Cl)cc1)c1cnc(NCc2ccc(Cl)cc2)nc1 [Example 57, {2-[(4-chlorobenzyl)amino]pyrimidin-5-yl}(4-chlorophenyl) methanone]	889
COc1ccc(C(=O)c2cnc(NCc3ccccn3)nc2)cc1 [Example 60, (4-methoxyphenyl) {2-[(pyridin-2-ylmethyl)amino]pyrimidin-5-yl}methanone]	89.5
O=C(c1ccc(C(F)(F)F)cc1)c1cnc(NCc2cccnc2)nc1 [Example 51, {2-[(pyridin-3-ylmethyl)amino]pyrimidin-5-yl}[4-(trifluoromethyl)phenyl]methanone]	44.9
O=C(c1ccc(Cl)cc1)c1cnc(NCc2ccc(F)cc2)nc1 [Example 52, (4-chlorophenyl){2-[(4-fluorobenzyl)amino]pyrimidin-5-yl}methanone]	170
N#Cc1ccc(CNc2ncc(C(=O)c3cccc(C(F)(F)F)c3)cn2)cc1 [Example 76, 4-[({5-[3-(trifluoromethyl)benzoyl]pyrimidin-2-yl}amino)methyl] benzonitrile]	112
O=C(c1cnc(OCc2ccc(OC(F)(F)F)cc2)nc1)c1cccc(C(F)(F)F)c1 [Example 158, (2-{[4-(trifluoromethoxy)benzyl]oxy}pyrimidin-5-yl)[3-(trifluoromethyl)phenyl]methanone]	> 2890
O=C(c1cnc(NCc2ccc(OC(F)(F)F)cc2)nc1)c1cccc(C(F)(F)F)c1 [Example 58, (2-{[4-(trifluoromethoxy)benzyl]amino}pyrimidin-5-yl)[3-(trifluoromethyl)phenyl]methanone]	133
COc1ccc(C(=O)c2cnc(NCc3ccc(OC(F)(F)F)cc3)nc2)cc1 [Example 75, (4-methoxyphenyl) (2-{[4-(trifluoromethoxy)benzyl]amino}pyrimidin-5-yl)methanone]	617
O=C(c1cnc(NCc2ccncc2)nc1)c1cccc(C(F)(F)F)c1 [Example 56, {2-[(pyridin-4-ylmethyl)amino]pyrimidin-5-yl}[3-(trifluoromethyl)phenyl]methanone]	36.2
